pIC50: −log10 of the molar value. Non-standard residues stand in square brackets, D forms with d. Residues, ends and D or L forms follow the SMILES beside them. pGlu = O=C1CC[C@@H](C(=O)O)N1
Biological target: T1, ACE (rabbit lung-derived) (Oryctolagus cuniculus, UniProt P12822)
T1 construct: 0.3 U/ml of ACE (rabbit lung-derived, manufactured by SIGMA); purchased SIGMA; host or cells: rabbit lung (tissue-derived)
T1 sequence (P12822 34-1310): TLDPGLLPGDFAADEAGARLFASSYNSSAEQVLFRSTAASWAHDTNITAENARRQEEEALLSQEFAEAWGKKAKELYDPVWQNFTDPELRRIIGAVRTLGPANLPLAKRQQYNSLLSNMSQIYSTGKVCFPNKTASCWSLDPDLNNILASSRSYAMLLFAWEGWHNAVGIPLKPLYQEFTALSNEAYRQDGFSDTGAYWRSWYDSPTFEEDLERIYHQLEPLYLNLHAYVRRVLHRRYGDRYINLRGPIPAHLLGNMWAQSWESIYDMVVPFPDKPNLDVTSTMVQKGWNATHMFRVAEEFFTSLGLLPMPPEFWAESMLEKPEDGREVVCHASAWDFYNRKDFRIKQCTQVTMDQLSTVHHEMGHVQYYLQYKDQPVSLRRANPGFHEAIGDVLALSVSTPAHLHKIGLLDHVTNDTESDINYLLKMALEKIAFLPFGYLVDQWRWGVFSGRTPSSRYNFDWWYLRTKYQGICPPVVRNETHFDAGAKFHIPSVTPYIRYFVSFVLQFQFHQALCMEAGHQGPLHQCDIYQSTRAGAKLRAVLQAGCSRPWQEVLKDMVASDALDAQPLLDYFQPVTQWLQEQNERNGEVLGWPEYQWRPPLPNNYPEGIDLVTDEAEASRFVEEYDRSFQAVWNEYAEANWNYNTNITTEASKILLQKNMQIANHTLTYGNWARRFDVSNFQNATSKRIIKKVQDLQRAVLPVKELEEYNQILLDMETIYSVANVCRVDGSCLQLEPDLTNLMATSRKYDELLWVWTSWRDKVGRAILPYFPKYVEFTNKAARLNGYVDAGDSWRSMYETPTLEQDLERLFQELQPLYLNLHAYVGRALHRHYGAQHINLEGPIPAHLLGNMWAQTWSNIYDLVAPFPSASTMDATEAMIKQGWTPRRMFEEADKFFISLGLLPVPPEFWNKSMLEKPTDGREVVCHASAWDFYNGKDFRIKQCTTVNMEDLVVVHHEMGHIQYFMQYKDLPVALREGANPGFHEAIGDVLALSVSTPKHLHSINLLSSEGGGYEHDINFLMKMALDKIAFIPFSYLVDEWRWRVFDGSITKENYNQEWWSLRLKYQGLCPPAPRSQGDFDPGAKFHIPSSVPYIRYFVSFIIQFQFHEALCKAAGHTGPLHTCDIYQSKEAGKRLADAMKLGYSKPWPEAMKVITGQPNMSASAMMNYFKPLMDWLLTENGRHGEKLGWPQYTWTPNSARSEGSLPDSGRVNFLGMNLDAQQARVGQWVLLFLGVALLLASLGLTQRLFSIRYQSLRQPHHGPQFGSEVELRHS
Assay: ACE inhibitory activity (modified method of Yamamoto et al., Hippuryl-His-Leu substrate)
Assay type: biochemical
Conditions: pH 8.3, 37° C., 30 minutes, chemically synthesized peptides
Protocol: ACE inhibitory activity of the peptides obtained by the aforementioned synthesis method was measured. As the measuring method, it was carried out by a method in which the method of Yamamoto et al. (Setsuko Yamamoto et al., Journal of the Japan Society of Chest Diseases, 1980, 18, p. 297-302) was partially modified. Namely, 140 μl of sample solution, 10 μl of enzyme solution (0.3 U/ml of ACE (rabbit lung-derived, manufactured by SIGMA) and 50 mM borate buffer (pH 8.3) were added to 100 μl of a substrate solution (12.5 mM Hippuryl-His-Leu (manufactured by SIGMA), 100 mM borate buffer pH 8.3, 1M NaCl), and the reaction was carried out at 37° C. for 30 minutes. Subsequently, the reaction was stopped by adding 250 μl of 1 N hydrochloric acid and, after stirring by adding 1.5 ml of ethyl acetate and subsequent centrifugation, 1 ml of the ethyl acetate layer was concentrated and dried by centrifugal concentration followed by dissolution in 1 ml of ultrapure water to measure the absorbance at 228 nm. The ACE inhibitory ratio is represented by the following formula. ACE inhibitory ratio (%)={1−(ODs−ODsb)/(ODc−ODcb)}×100
In this connection, ODs is the absorbance when the reaction was carried out by adding the enzyme solution to a sample as described above; ODsb is the absorbance when ultrapure water was added instead of the enzyme solution; ODc is the absorbance when ultrapure water was added instead of the sample solution; and ODcb is the absorbance when ultrapure water was added instead of the enzyme solution and sample solution. Additionally, the concentration of a sample which gives 50% of the enzyme activity inhibitory ratio on this reaction system is regarded as the IC50 value.

| Compound | pIC50 |
| --- | --- |
| O=C1CC[C@@H](C(=O)N2CCC[C@H]2C(=O)O)N1 [pyroGlu-Pro] ([pGlu]-Pro-OH; C-terminus assumed) | 3.97 |
| C[C@@H](O)[C@H](NC(=O)[C@@H](N)Cc1ccc(O)cc1)C(=O)O [Tyr-Thr] (H-Tyr-Thr-OH) | 4.46 |
| O=C(O)[C@H](Cc1c[nH]c2ccccc12)NC(=O)[C@@H]1CCCN1 [Pro-Trp] (H-Pro-Trp-OH; N-terminus and C-terminus assumed) | 3.73 |
| NC(=O)C[C@H](N)C(=O)N[C@@H](Cc1c[nH]c2ccccc12)C(=O)O [Asn-Trp] (H-Asn-Trp-OH; N-terminus and C-terminus assumed) | 4.60 |

From US9006171B2, “Angiotensin converting enzyme inhibitory peptide” (Kikkoman Corporation, priority 2009, dated 2015)
